Like-named read-outs stand apart in the source and are kept apart here.
Key:
[1] = biological target: JAK2 kinase (wild type, JAK2^WT) (Homo sapiens (Human), UniProt O60674); experiment: HTRF assay for enzymatic activity (IC50), JAK2 wild type; format: biochemical; conditions: ATP at Km, 120 min, 23 °C
Experimental: 1. Assay for Enzymatic Activity (IC50) of Compounds
A testing platform for kinase activity of JAK2 (wild type and V617F mutant type) was established based on Homogeneous Time-Resolved Fluorescence (HTRF) assay, and the activities of the compounds were tested using the platform. The compounds were subjected to three-fold gradient dilutions with 100% DMSO with a starting concentration of 1 mM (11 dilutions in total). 4 μL of each dilution was added to 96 μL of reaction buffer (50 mM HEPES, pH 7.4, 10 mM MgCl2, 1 mM EGTA, 0.01% Tween-20, 0.005% BAS, 2 mM DTT) and mixed homogeneously. […] The mixture was mixed homogeneously by centrifugation. […] The plate was incubated in the incubator for 1 hr, and then the fluorescence values were read on Envision (available from PerkinElmer). […] The enzymatic activity was representd by a ratio of the two readout at the two emission wavelengths. The enzymatic activity for each compound was tested at 11 concentrations, and IC50 values of the compounds were obtained by calculating the data using GraFit6.0 software (Erithacus Software). 2. Assay for cell proliferation activity (IC50) of compounds

[2] = Pharmacokinetic assay in adult female SD rats (30 mg/kg oral); format: in vivo
[3] = Pharmacokinetic assay in adult beagles (IV 5 mg/kg, PO 10 mg/kg); format: in vivo; conditions: for half-life / AUC(0-inf) / Cmax / Tmax: beagle, dog, plasma; for AUC(0-inf): read-out: AUCINF—obs
Description: Pharmacokinetic Assay in Adult Beagles

[4] = both sexes, IV 5 mg/kg, average
[5] = both sexes, PO 10 mg/kg, average

Chain of JAK2 kinase (wild type, JAK2^WT) (O60674 whole entry): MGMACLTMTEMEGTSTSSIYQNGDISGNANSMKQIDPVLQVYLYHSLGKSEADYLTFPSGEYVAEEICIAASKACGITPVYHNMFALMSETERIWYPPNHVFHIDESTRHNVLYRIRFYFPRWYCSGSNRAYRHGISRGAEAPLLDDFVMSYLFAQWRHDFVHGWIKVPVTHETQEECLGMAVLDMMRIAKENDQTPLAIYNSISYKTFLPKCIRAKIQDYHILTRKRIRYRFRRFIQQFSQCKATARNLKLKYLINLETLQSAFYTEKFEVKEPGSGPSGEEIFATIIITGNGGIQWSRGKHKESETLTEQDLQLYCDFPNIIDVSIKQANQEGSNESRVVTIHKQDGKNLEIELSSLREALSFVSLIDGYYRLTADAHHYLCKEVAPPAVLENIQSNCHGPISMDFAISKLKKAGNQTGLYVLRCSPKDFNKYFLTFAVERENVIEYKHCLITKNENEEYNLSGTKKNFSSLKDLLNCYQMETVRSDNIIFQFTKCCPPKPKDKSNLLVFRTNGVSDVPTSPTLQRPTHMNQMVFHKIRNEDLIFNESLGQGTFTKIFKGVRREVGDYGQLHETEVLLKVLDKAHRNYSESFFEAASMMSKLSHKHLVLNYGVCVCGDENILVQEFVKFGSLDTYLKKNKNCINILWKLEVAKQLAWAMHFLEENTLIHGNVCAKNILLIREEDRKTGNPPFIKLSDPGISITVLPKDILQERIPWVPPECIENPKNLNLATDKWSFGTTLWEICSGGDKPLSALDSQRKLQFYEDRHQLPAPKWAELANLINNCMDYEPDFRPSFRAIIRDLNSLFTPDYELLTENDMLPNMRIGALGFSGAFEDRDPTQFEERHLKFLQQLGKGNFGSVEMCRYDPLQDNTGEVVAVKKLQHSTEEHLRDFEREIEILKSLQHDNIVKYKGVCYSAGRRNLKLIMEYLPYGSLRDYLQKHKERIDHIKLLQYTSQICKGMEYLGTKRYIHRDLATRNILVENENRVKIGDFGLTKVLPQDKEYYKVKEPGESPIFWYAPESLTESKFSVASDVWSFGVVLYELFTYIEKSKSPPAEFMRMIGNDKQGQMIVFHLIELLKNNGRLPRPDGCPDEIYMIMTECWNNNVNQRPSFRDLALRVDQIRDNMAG

In the case of `N#CCC(C1CCCC1)n1cc(-c2ncnc3[nH]ccc23)c(N2C(=O)CCC2=O)n1` (stereo not shown) [Example 16, 3-cyclopentyl-3-[3-(succinimid-1-yl)-4-(7H-pyrrolo[2,3-d]pyrimidin-4-yl)-1H-pyrazol-1-yl]propionitrile], the IC50 [1] is reported as < 100 nM.
In the case of `N#CCC(C1CCCC1)n1cc(-c2ncnc3[nH]ccc23)c(NC(=O)CN2CCOCC2)n1` (stereo not shown) [Example 12, N-[1-(2-cyano-1-cyclopentylethyl)-4-(7H-pyrrolo[2,3-d]pyrimidin-4-yl)-1H-pyrazol-3-yl]-2-morpholinylacetamide], the IC50 [1] is reported as < 20 nM.
In the case of `N#CCC(C1CCCC1)n1cc(-c2ncnc3[nH]ccc23)c(C(N)=O)n1` (stereo not shown) [Example 24, 1-(2-cyano-1-cyclopentylethyl)-4-(7H-pyrrolo[2,3-d]pyrimidin-4-yl)-1H-pyrazol-3-formamide], the IC50 [1] is reported as < 20 nM.
With `N#CCC(C1CCCC1)n1ncc(-c2ncnc3[nH]ccc23)c1N` (stereo not shown) [Example 3, 3-[5-amino-4-(7H-pyrrolo[2,3-d]pyrimidin-4-yl)-1H-pyrazol-1-yl]-3-cyclopentylpropanenitrile] the IC50 [1] was < 20 nM.
For `N#CC[C@H](C1CCCC1)n1cc(-c2ncnc3[nH]ccc23)c(N)n1` [Example 5, (3R)-3-[3-amino-4-(7H-pyrrolo[2,3-d]pyrimidin-4-yl)-1H-pyrazol-1-yl]-3-cyclopentylpropanenitrile], the IC50 [1] was < 20 nM, the AUCINFobs [2] was 6316 ng·h/mL and the Cmax [2] was 2204 ng/mL. The Tmax [2] was 0.58 h, the t1/2 [2] was 2.20 h and the Cl_obs ([3]; IV 5 mg/kg, average) was 8.82 mL/min/kg. The Vss_obs ([3]; IV 5 mg/kg, average) was 1.974 L/kg, the Cl_obs ([3]; IV 5 mg/kg, female) was 7.37 mL/min/kg and the Vss_obs ([3]; IV 5 mg/kg, female) was 1.86 L/kg. It also gave a Cl_obs ([3]; IV 5 mg/kg, male) of 10.3 mL/min/kg, a Vss_obs ([3]; IV 5 mg/kg, male) of 2.089 L/kg and an F ([3]; PO 10 mg/kg, average) of 114%. For the same compound, the F ([3]; PO 10 mg/kg, female) was 119%, the F ([3]; PO 10 mg/kg, male) was 107% and the half-life ([3]; IV 5 mg/kg, female) was 3.65 h. For the same compound, the AUC(0-inf) ([3]; IV 5 mg/kg, female) was 11500 ng·h/mL, the half-life ([3]; IV 5 mg/kg, male) was 3.64 h and the AUC(0-inf) ([3]; IV 5 mg/kg, male) was 8190 ng·h/mL. For the same compound, the Cmax ([3]; PO 10 mg/kg, female) was 3980 ng/mL, the Tmax ([3]; PO 10 mg/kg, female) was 1.13 h and the half-life ([3]; PO 10 mg/kg, female) was 3.03 h. For the same compound, the AUC(0-inf) ([3]; PO 10 mg/kg, female) was 27400 ng·h/mL, the Cmax ([3]; PO 10 mg/kg, male) was 3830 ng/mL and the Tmax ([3]; PO 10 mg/kg, male) was 0.25 h. The half-life ([3]; PO 10 mg/kg, male) was 3.04 h, the AUC(0-inf) ([3]; PO 10 mg/kg, male) was 17500 ng·h/mL and the half-life [3, 4] was 3.64 h. For the same compound, the AUC(0-inf) [3, 4] was 9850 ng·h/mL, the Cmax [3, 5] was 3900 ng/mL and the Tmax [3, 5] was 0.69 h. It also gave a half-life [3, 5] of 3.03 h and an AUC(0-inf) [3, 5] of 22500 ng·h/mL.
For `CC(=O)Nc1nn(C(CC#N)C2CCCC2)cc1-c1ncnc2[nH]ccc12` (stereo not shown) [Example 9, N-[1-(2-cyano-1-cyclopentylethyl)-4-(7H-pyrrolo[2,3-d]pyrimidin-4-yl)-1H-pyrazol-3-yl]acetamide], the IC50 [1] was < 20 nM.
In the case of `N#CCC(C1CCCC1)n1cc(-c2ncnc3[nH]ccc23)c(NCCC(=O)N2CCOCC2)n1` (stereo not shown) [Example 13, 3-cyclopentyl-3-[3-(3-morpholinyl-3-oxopropylamino)-4-(7H-pyrrolo[2,3-d]pyrimidin-4-yl)-1H-pyrazol-1-yl]propionitrile], the IC50 [1] is reported as < 20 nM.
With `N#CCC(C1CCCC1)n1cc(-c2ncnc3[nH]ccc23)c(C(=O)NCCN)n1` (stereo not shown) [Example 26, N-(2-aminoethyl)-1-(2-cyano-1-cyclopentylethyl)-4-(7H-pyrrolo[2,3-d]pyrimidin-4-yl)-1H-pyrazol-3-formamide] the IC50 [1] was < 20 nM.
In the case of `N#CCC(C1CCCC1)n1cc(-c2ncnc3[nH]ccc23)c(C#N)n1` (stereo not shown) [Example 27, 1-(2-cyano-1-cyclopentylethyl)-4-(7H-pyrrolo[2,3-d]pyrimidin-4-yl)-1H-pyrazol-3-carbonitrile], the IC50 [1] is reported as < 20 nM.
In the case of `N#CCC(C1CCCC1)n1cc(-c2ncnc3[nH]ccc23)c(CO)n1` (stereo not shown) [Example 28, 3-cyclopentyl-3-[3-(hydroxymethyl)-4-(7H-pyrrolo[2,3-d]pyrimidin-4-yl)-1H-pyrazol-1-yl]propionitrile], the IC50 [1] is reported as < 20 nM.
With `N#CC[C@@H](C1CCCC1)n1cc(-c2ncnc3[nH]ccc23)c(N)n1` [Example 6, (3S)-3-[3-amino-4-(7H-pyrrolo[2,3-d]pyrimidin-4-yl)-1H-pyrazol-1-yl]-3-cyclopentylpropanenitrile] the IC50 [1] was < 20 nM.
With `CCOC(=O)CCC(=O)Nc1nn(C(CC#N)C2CCCC2)cc1-c1ncnc2[nH]ccc12` (stereo not shown) [Example 15, Ethyl 4-[1-(2-cyano-1-cyclopentylethyl)-4-(7H-pyrrolo[2,3-d]pyrimidin-4-yl)-1H-pyrazol-3-ylamino]-4-oxobutanoate] the IC50 [1] was < 20 nM.
With `N#CCC(C1CCCC1)n1cc(-c2ncnc3[nH]ccc23)c(NC2CC(C(=O)N3CCOCC3)C2)n1` (stereo not shown) [Example 17, 3-[3-(3-morpholin-4-carbonyl)cyclobutylamino-4-(7H-pyrrolo[2,3-d]pyrimidin-4-yl)-1H-pyrazolyl]-3-cyclopentylpropanenitrile] the IC50 [1] was < 20 nM.
For `CNC(=O)c1nn(C(CC#N)C2CCCC2)cc1-c1ncnc2[nH]ccc12` (stereo not shown) [Example 25, 1-(2-cyano-1-cyclopentylethyl)-N-methyl-4-(7H-pyrrolo[2,3-d]pyrimidin-4-yl)-1H-pyrazol-3-formamide], the IC50 [1] was < 20 nM.
With `N#CCC(C1CCCC1)n1cc(-c2ncnc3[nH]ccc23)c(NCC(=O)N2CCOCC2)n1` (stereo not shown) [Example 14, 3-cyclopentyl-3-[3-(2-morpholinyl-2-oxoethylamino)-4-(7H-pyrrolo[2,3-d]pyrimidin-4-yl)-1H-pyrazol-1-yl]propionitrile] the IC50 [1] was < 20 nM.
For `N#CCC(C1CCCC1)n1cc(-c2ncnc3[nH]ccc23)c(NCCN2CCOCC2)n1` (stereo not shown) [Example 11, 3-cyclopentyl-3-[3-(2-morpholinylethylamino)-4-(7H-pyrrolo[2,3-d]pyrimidin-4-yl)-1H-pyrazol-1-yl]propionitrile], the IC50 [1] was < 20 nM.
In the case of `N#CCC(C1CCCC1)n1cc(-c2ncnc3[nH]ccc23)c(Br)n1` (stereo not shown) [Example 19, 3-[3-bromo-4-(7H-pyrrolo[2,3-d]pyrimidin-4-yl)-1H-pyrazol-1-yl]-3-cyclopentylpropanenitrile], the IC50 [1] is reported as < 20 nM.
With `N#CCC(C1CCCC1)n1cc(-c2ncnc3[nH]cc(Br)c23)c(Br)n1` (stereo not shown) [Example 18, 3-[3-bromo-4-(5-bromo-7H-pyrrolo[2,3-d]pyrimidin-4-yl)-1H-pyrazol-1-yl]-3-cyclopentylpropanenitrile] the IC50 [1] was < 1000 nM.

— patent US10561657B2, “Pyrrolopyrimidine compound” (CENTAURUS BIOPHARMA CO., LTD., priority 2014, dated 2020)
